Results as given in the NIST ThermoML archive (doi:10.1021/je1005196).

Key:
[1] = Liquid; for mass density / speed of sound: 101.33 kPa; for mass density: Pycnometric method; for speed of sound: Linear variable-path acoustic interferometer
[2] = xn = mol fraction of the nth substance listed; details: 308.15 K, 101 kPa, Liquid; for excess molar volume: Direct dilatometry; for speed of sound: Linear variable-path acoustic interferometer
[3] = excess molar enthalpy (molar enthalpy of mixing); xn = mol fraction of the nth substance listed; details: 308.15 K, 101 kPa, Liquid, Calvet calorimetry

C1CCOCC1 [tetrahydropyran]
[1]
Details	mass density [kg/m3]	vapor or sublimation pressure [kPa]
298.15 K	868.6	–
308.15 K	–	13.79

Details	vapor or sublimation pressure [kPa]
[1], 298.15 K, Closed cell (Static) method	9.533

CNc1ccccc1 [N-methylaniline]
[1]
Details	mass density [kg/m3]	speed of sound [m/s]	vapor or sublimation pressure [kPa]
298.15 K	982.4	1572	–
308.15 K	–	–	0.1067

Details	vapor or sublimation pressure [kPa]
[1], 298.15 K, Closed cell (Static) method	0.0667

Cc1ccccc1N [2-methylaniline]
[1]
Details	mass density [kg/m3]	speed of sound [m/s]	vapor or sublimation pressure [kPa]
298.15 K	994.2	1602	–
308.15 K	–	–	0.0667

Details	vapor or sublimation pressure [kPa]
[1], 298.15 K, Closed cell (Static) method	0.04

Nc1ccccc1 [aniline]
[1]
Details	mass density [kg/m3]	speed of sound [m/s]	vapor or sublimation pressure [kPa]
298.15 K	1017.2	1635	–
308.15 K	–	–	0.12

Details	vapor or sublimation pressure [kPa]
[1], 298.15 K, Closed cell (Static) method	0.0933

CNc1ccccc1 [N-methylaniline] + C1CCOCC1
Details	excess molar enthalpy [kcal/mol]	excess molar volume [m3/mol]	speed of sound [m/s]
[2], x2 = 0.0541	–	–	1509
[2], x2 = 0.0764	–	-7.2e-08	–
[2], x2 = 0.1321	–	–	1490
[2], x2 = 0.1416	–	-1.25e-07	–
[2], x2 = 0.1921	–	-1.59e-07	–
[2], x2 = 0.2316	–	–	1468
[2], x2 = 0.244	–	-1.89e-07	–
[2], x2 = 0.2811	–	–	1457
[2], x2 = 0.2905	–	-2.1e-07	–
[2], x2 = 0.3451	–	-2.27e-07	–
[2], x2 = 0.3612	–	–	1437
[2], x2 = 0.3984	–	-2.37e-07	–
[2], x2 = 0.4112	–	–	1424
[2], x2 = 0.4515	–	-2.4e-07	–
[2], x2 = 0.4932	–	–	1400
[2], x2 = 0.5224	–	-2.34e-07	–
[2], x2 = 0.5638	–	–	1377
[2], x2 = 0.613	–	-2.1e-07	–
[2], x2 = 0.6148	–	–	1360
[2], x2 = 0.6873	–	-1.78e-07	–
[2], x2 = 0.6919	–	–	1332
[2], x2 = 0.7418	–	–	1313
[2], x2 = 0.7531	–	-1.44e-07	–
[2], x2 = 0.8141	–	–	1287
[2], x2 = 0.8231	–	-1.03e-07	–
[2], x2 = 0.8992	–	–	1257
[2], x2 = 0.9191	–	-4.5e-08	–
[2], x2 = 0.9514	–	–	1239
[3], x2 = 0.0856	-0.0264	–	–
[3], x2 = 0.1321	-0.0407	–	–
[3], x2 = 0.1976	-0.06	–	–
[3], x2 = 0.2434	-0.0727	–	–
[3], x2 = 0.3122	-0.0899	–	–
[3], x2 = 0.3876	-0.105	–	–
[3], x2 = 0.4444	-0.114	–	–
[3], x2 = 0.4878	-0.119	–	–
[3], x2 = 0.5548	-0.122	–	–
[3], x2 = 0.6233	-0.121	–	–
[3], x2 = 0.6921	-0.113	–	–
[3], x2 = 0.7432	-0.104	–	–
[3], x2 = 0.8767	-0.0624	–	–
[3], x2 = 0.9549	-0.0256	–	–

Cc1ccccc1N [2-methylaniline] + C1CCOCC1
Details	excess molar enthalpy [kcal/mol]	excess molar volume [m3/mol]	speed of sound [m/s]
[2], x2 = 0.0832	–	–	1535
[2], x2 = 0.1451	–	–	1505
[2], x2 = 0.1881	–	-3.94e-07	–
[2], x2 = 0.2102	–	–	1475
[2], x2 = 0.2321	–	-4.57e-07	–
[2], x2 = 0.2918	–	–	1441
[2], x2 = 0.2967	–	-5.47e-07	–
[2], x2 = 0.3245	–	-5.75e-07	–
[2], x2 = 0.3581	–	–	1414
[2], x2 = 0.3834	–	-6.36e-07	–
[2], x2 = 0.4002	–	–	1399
[2], x2 = 0.4704	–	-7.08e-07	–
[2], x2 = 0.4981	–	–	1364
[2], x2 = 0.5181	–	-7.32e-07	–
[2], x2 = 0.5423	–	-7.37e-07	–
[2], x2 = 0.5638	–	–	1343
[2], x2 = 0.6112	–	-7.45e-07	–
[2], x2 = 0.6118	–	–	1328
[2], x2 = 0.6877	–	-7.22e-07	–
[2], x2 = 0.7148	–	–	1299
[2], x2 = 0.7414	–	-6.82e-07	–
[2], x2 = 0.7981	–	–	1277
[2], x2 = 0.8213	–	-5.66e-07	–
[2], x2 = 0.8412	–	–	1267
[2], x2 = 0.8974	–	-3.81e-07	–
[2], x2 = 0.9003	–	–	1253
[2], x2 = 0.9426	–	-2.35e-07	–
[2], x2 = 0.9628	–	–	1240
[3], x2 = 0.0701	-0.0286	–	–
[3], x2 = 0.1765	-0.0678	–	–
[3], x2 = 0.2379	-0.0874	–	–
[3], x2 = 0.295	-0.103	–	–
[3], x2 = 0.3344	-0.113	–	–
[3], x2 = 0.3911	-0.124	–	–
[3], x2 = 0.435	-0.137	–	–
[3], x2 = 0.4901	-0.137	–	–
[3], x2 = 0.5521	-0.139	–	–
[3], x2 = 0.6276	-0.136	–	–
[3], x2 = 0.6982	-0.126	–	–
[3], x2 = 0.741	-0.117	–	–
[3], x2 = 0.8546	-0.0792	–	–
[3], x2 = 0.9201	-0.048	–	–

Nc1ccccc1 [aniline] + C1CCOCC1
Details	excess molar enthalpy [kcal/mol]	excess molar volume [m3/mol]	speed of sound [m/s]
[2], x2 = 0.0702	–	-9.7e-08	–
[2], x2 = 0.0912	–	–	1564
[2], x2 = 0.1516	–	–	1543
[2], x2 = 0.1767	–	-2.45e-07	–
[2], x2 = 0.2381	–	-3.22e-07	–
[2], x2 = 0.2414	–	–	1510
[2], x2 = 0.2952	–	-3.84e-07	–
[2], x2 = 0.299	–	–	1490
[2], x2 = 0.3347	–	-4.2e-07	–
[2], x2 = 0.3541	–	–	1470
[2], x2 = 0.3913	–	-4.59e-07	–
[2], x2 = 0.4354	–	-4.8e-07	–
[2], x2 = 0.4417	–	–	1438
[2], x2 = 0.4904	–	-4.92e-07	–
[2], x2 = 0.5312	–	–	1404
[2], x2 = 0.5525	–	-4.87e-07	–
[2], x2 = 0.5943	–	–	1379
[2], x2 = 0.628	–	-4.56e-07	–
[2], x2 = 0.6511	–	–	1357
[2], x2 = 0.6989	–	-4.01e-07	–
[2], x2 = 0.7344	–	–	1324
[2], x2 = 0.7412	–	-3.59e-07	–
[2], x2 = 0.8117	–	–	1294
[2], x2 = 0.8548	–	-2.15e-07	–
[2], x2 = 0.883	–	–	1267
[2], x2 = 0.9204	–	-1.19e-07	–
[2], x2 = 0.9413	–	–	1245
[2], x2 = 0.9812	–	–	1231
[3], x2 = 0.0545	-0.02	–	–
[3], x2 = 0.1711	-0.0599	–	–
[3], x2 = 0.2234	-0.0767	–	–
[3], x2 = 0.2761	-0.0929	–	–
[3], x2 = 0.3509	-0.114	–	–
[3], x2 = 0.4214	-0.132	–	–
[3], x2 = 0.5512	-0.155	–	–
[3], x2 = 0.5879	-0.158	–	–
[3], x2 = 0.6213	-0.159	–	–
[3], x2 = 0.6821	-0.157	–	–
[3], x2 = 0.7511	-0.147	–	–
[3], x2 = 0.8145	-0.128	–	–
[3], x2 = 0.8914	-0.0893	–	–
[3], x2 = 0.9413	-0.0539	–	–
